Data taken from patent publication US5795561A, “Radioiodinated phospholipid ether analogues” (The Board of Regents of the University of Michigan, priority 1994, dated 1998).
Read-outs that look alike come from different tables or passages of the source. Each block holds one compound with its values, some of them ahead of it.

Assays:
Walker 256 sarcoma [1] = conditions: rat, in vivo
Description: (§2) Both types of lesions were located in the thigh of the rat. Tumor bearing lesions were produced by implantation of Walker 256 sarcoma cells and inflammatory granuloma lesions were developed using carrageenan irritation in accordance with the method described by Atkinson, et al., Agents and Actions, Vol. 8, pages 263-267, 1978.

[2] = Tissue distribution 24 hours after I.V. administration to rats bearing the Walker-256 carcinosarcoma (Tables 5 and 6); type: in vivo, Sprague-Dawley rats; conditions: rat, iv, tumor-bearing rats
Method: Tissue distribution studies were conducted with the alkyl lysophospholipid analogues of general Formula II.

[3] = Tissue distribution of radioactivity after IV administration in normal (control) rats (Tables 1-4); type: in vivo, female Sprague Dawley rats; conditions: rat, 125I-labelled; for tissue uptake at 6 h: 6 hours after IV, N = 3, mean ± standard error; for tissue uptake at 24 h: 24 hours after IV
Method: (§1) Radiolabelled compounds 1-[12-(m-iodophenyl)-dodecyl]-2-methyl-rac-glycero-3-phosphocholine (ET-12IP-OMe; Example 2, compound 18) and 1-[12-(m-iodophenyl)-dodecyl]-propanediol-3-phosphocholine (ET-12IP-OH; Example 3, compound 24) were prepared and administered to two sets of female Sprague Dawley rats: normal rats (control) and rats bearing tumors resulting from Walker 256 sarcoma cells which had been implanted into the thigh. The labelled compounds (5-35 μCi ^125 I) were administered intravenously in a 2% Tween 20-saline vehicle. At various times following administration the animals were sacrificed, and selected tissue samples were removed. The tissue samples were weighed and placed in cellulose acetate capsules. The radioactivity was then counted (85% efficiency) using a well scintillation counter (Searle 1185).

[4] = system: inflammatory granuloma lesions; conditions: rat, in vivo
Description: as §2

Walker 256 sarcoma [5] = assay: Tissue distribution of radioactivity after IV administration in rats bearing Walker 256 sarcoma (Tables 1-4); type: in vivo, female Sprague Dawley rats
Method: as §1

[6] = as above; type: in vivo, female Sprague Dawley rats; conditions: rat, 125I-labelled; for tissue uptake at 6 h: 6 hours after IV; for tissue uptake at 24 h: 24 hours after IV
Method: as §1

[7] = system: human HTB 77 ovarian adenocarcinoma, NCI 69 human small cell carcinoma, and human HTB 63 melanoma; assay: In vivo tumor localization and scintigraphy in athymic nude mice with subcutaneous human tumors (Example 8)
human tumor models = assay: Tissue distribution in athymic mice human tumor models (FIG. 17); type: in vivo, athymic nude mice; conditions: 13 days post-administration, % dose/gram of tissue plotted (FIG. 17)
Method: FIG. 17 is a bar graph showing tissue distribution in the blood, liver, and specified tumor tissue of radioiodinated 12-(m-iodophenyl)-dodecyl phosphocholine in nude mice 13 days post-administration; and
Tumor:blood levels greater than 25:1 were recorded in all athymic mice human tumor models.
FIG. 17 is a bar graph showing the tissue distribution in the blood, liver, and specified tumor tissue of compound 50 in nude mice 13 days post-administration. The data is expressed in terms of % dose/gram of tissue.

Walker 256 sarcomas = assay: In vivo tumor localization in rats with intramuscular Walker 256 sarcomas (Example 8); set-up: species or system Sprague-Dawley rats; conditions: intravenous injection
Method: 12-(m-Iodophenyl)dodecyl phosphocholine (compound 50) was administered by intravenous injection to Sprague-Dawley rats with intramuscular Walker 256 sarcomas and athymic nude mice with subcutaneous human tumors, specifically, human HTB 77 ovarian adenocarcinoma, NCI 69 human small cell carcinoma, and human HTB 63 melanoma.

[8] = system: HTB 63 human melanoma tumors; assay: Tissue distribution in nude mice bearing HTB 63 human melanoma tumors (FIG. 18); type: in vivo; conditions: 13 days post-injection (FIG. 18)
Description: FIG. 18 is a bar graph showing tissue distribution of radioiodinated 12-(m-iodophenyl)-dodecyl phosphocholine in nude mice bearing HTB 63 human melanoma tumors at 13 days post-injection.
FIG. 18 is a bar graph which vividly illustrates the relative difference in tissue concentration of compound 50 in nude mice bearing HTB 63 human melanoma tumors at 13 days post-injection. The tissue concentration in the tumor tissue is remarkable.

[9] = system: inflammatory granuloma lesions; assay: Gamma-camera scintigraphy in rats bearing inflammatory lesions (granuloma)
Description: as §2

Walker 256 sarcoma [10] = assay: Gamma-camera scintigraphy in tumor-bearing rats
Description: as §2

tumor = conditions: background; cited from earlier work
[11] = adrenal, read-out: Distribution of radioactivity: adrenal
[12] = blood, read-out: Distribution of radioactivity: blood
[13] = read-out: Distribution of radioactivity: tumor
[14] = kidney, read-out: Distribution of radioactivity: kidney
[15] = liver, read-out: Distribution of radioactivity: liver
[16] = lung, read-out: Distribution of radioactivity: lung
[17] = muscle, read-out: Distribution of radioactivity: muscle
[18] = thyroid, read-out: Distribution of radioactivity: thyroid
[19] = blood, read-out: Radioactivity in blood
[20] = kidney, read-out: Radioactivity in kidney
[21] = liver, read-out: Radioactivity in liver
[22] = lung, read-out: Radioactivity in lung
[23] = muscle, read-out: Radioactivity in muscle
[24] = blood, tumor-bearing rats, N = 3, mean ± standard error, read-out: Radioactivity in blood
[25] = kidney, tumor-bearing rats, N = 3, mean ± standard error, read-out: Radioactivity in kidney
[26] = liver, tumor-bearing rats, N = 3, mean ± standard error, read-out: Radioactivity in liver
[27] = lung, tumor-bearing rats, N = 3, mean ± standard error, read-out: Radioactivity in lung
[28] = muscle, tumor-bearing rats, N = 3, mean ± standard error, read-out: Radioactivity in muscle
[29] = walker 256 tumor, Walker 256 sarcoma implanted in thigh, N = 3, mean ± standard error, read-out: Radioactivity in tumor
[30] = whole body scans 24 hours after administration

SMILES: COC(COCCCCCCCCCCCCc1cccc([125I])c1)COP(=O)([O-])OCC[N+](C)(C)C (racemic) [ET-12IP-OMe, 1-[12-(m-iodophenyl)-dodecyl]-2-methyl-rac-glycero-3-phosphocholine]
localization in tumor (Walker 256 sarcoma [1]): capable of localizing in the tumor
tissue uptake at 24 h [2, 11]: 0.436 %ID/g
tissue uptake at 24 h [2, 12]: 0.096 %ID/g
tissue uptake at 24 h [2, 13]: 1.11 %ID/g
tissue uptake at 24 h [2, 14]: 0.463 %ID/g
tissue uptake at 24 h [2, 15]: 0.743 %ID/g
tissue uptake at 24 h [2, 16]: 0.299 %ID/g
tissue uptake at 24 h [2, 17]: 0.027 %ID/g
tissue uptake at 24 h [2, 18]: 7.34 %ID/g
tissue uptake at 6 h [3, 19]: 0.105 ± 0.009 %ID/g
tissue uptake at 24 h ([3]; blood, N = 4, mean ± standard error, read-out: Radioactivity in blood): 0.085 ± 0.001 %ID/g
tissue uptake at 6 h [3, 20]: 0.65 ± 0.114 %ID/g
tissue uptake at 24 h ([3]; kidney, N = 4, mean ± standard error, read-out: Radioactivity in kidney): 0.426 ± 0.03 %ID/g
tissue uptake at 6 h [3, 21]: 1.74 ± 0.125 %ID/g
tissue uptake at 24 h ([3]; liver, N = 4, mean ± standard error, read-out: Radioactivity in liver): 0.675 ± 0.02 %ID/g
tissue uptake at 6 h [3, 22]: 0.356 ± 0.012 %ID/g
tissue uptake at 24 h ([3]; lung, N = 4, mean ± standard error, read-out: Radioactivity in lung): 0.218 ± 0.01 %ID/g
tissue uptake at 6 h [3, 23]: 0.023 %ID/g
tissue uptake at 24 h ([3]; muscle, N = 4, mean ± standard error, read-out: Radioactivity in muscle): 0.034 ± 0.004 %ID/g
localization in the inflammatory lesion [4]: little activity was associated with this area
clearance of radioactivity from tissues (Walker 256 sarcoma [5]; by 24 hours): radioactivity had cleared significantly from all of the tissues except for tumor tissue
tissues with the highest concentrations of radioactivity (Walker 256 sarcoma [5]; six hours following administration): liver, kidney, and tumor tissues exhibiting the highest concentrations
tissue uptake at 6 h [6, 24]: 0.231 ± 0.008 %ID/g
tissue uptake at 24 h [6, 24]: 0.096 ± 0.023 %ID/g
tissue uptake at 6 h [6, 25]: 1.31 ± 0.091 %ID/g
tissue uptake at 24 h [6, 25]: 0.463 ± 0.111 %ID/g
tissue uptake at 6 h [6, 26]: 3.59 ± 0.189 %ID/g
tissue uptake at 24 h [6, 26]: 0.743 ± 0.105 %ID/g
tissue uptake at 6 h [6, 27]: 0.873 ± 0.081 %ID/g
tissue uptake at 24 h [6, 27]: 0.299 ± 0.017 %ID/g
tissue uptake at 6 h [6, 28]: 0.046 ± 0.001 %ID/g
tissue uptake at 24 h [6, 28]: 0.027 ± 0.006 %ID/g
tissue uptake at 6 h [6, 29]: 1.12 ± 0.024 %ID/g
tissue uptake at 24 h [6, 29]: 1.11 ± 0.016 %ID/g

SMILES: C[N+](C)(C)CCOP(=O)([O-])OCCCCCCCCCCCCc1cccc(I)c1 [compound 50, 12-(m-iodophenyl)-dodecyl phosphocholine]
tissue distribution in blood, liver and specified tumor tissue (human tumor models): the tumor contained the largest amount of radioactivity
tumor localization (Walker 256 sarcomas): excellent tumor localization
clearance of background activity ([7]; beyond five days post-injection): all background activity had cleared from the liver and gastrointestinal tract
tumor localization ([7]; intravenous injection): excellent tumor localization
tissue concentration in the tumor tissue [8]: remarkable

SMILES: O=C([O-])CC(O)(CC(=O)[O-])C(=O)[O-].[67Ga+3] [gallium-67 citrate]
accumulation in granuloma (inflammatory lesion), scintigraphic scan ([9]; 24 hours after administration, for ET-12IP-OMe in relation to liver): high accumulation
accumulation in liver (scintigraphic scan) ([9]; granuloma-bearing rat, 24 hours after administration): high accumulation
localization in the inflammatory lesion [9, 30]: found to localize in the inflammatory lesion
accumulation in tumor (scintigraphic scan) (Walker 256 sarcoma [10]; 24 hours after administration): high accumulation
accumulation in liver (scintigraphic scan) (Walker 256 sarcoma [10]; tumor-bearing rat, 24 hours after administration): low accumulation
localization in tumor (Walker 256 sarcoma [10]; [30]): capable of localizing in the tumor
accumulation in inflammatory lesions (tumor): also accumulates in a variety of other inflammatory lesions
alteration of distribution by steroidal and antineoplastic drugs (tumor): can be altered by a variety of steroidal and antineoplastic drugs
localization in tumor (tumor): will localize, or accumulate, in a tumor

More lines, main results first:

localization in tumor tissues ([7]; similar studies to those with compound 50 (rat and athymic mouse models)): exhibited localization in tumor tissues
SMILES: CCCCCCCCCCCCCCCCOP(=O)([O-])OCC[N+](C)(C)Cc1cccc(I)c1 [Compound 60, hexadecyl-2-[N,N-dimethyl-N-(m-iodobenzyl)-ammonium] ethylphosphate]

tissue uptake at 6 h [3, 19]: 0.475 ± 0.078 %ID/g
tissue uptake at 24 h ([3]; blood, N = 3, mean ± standard error (Table 4), read-out: Radioactivity in blood): 0.047 ± 0.035 %ID/g
tissue uptake at 6 h [3, 20]: 2.6 ± 0.107 %ID/g
tissue uptake at 24 h ([3]; kidney, N = 3, mean ± standard error (Table 4), read-out: Radioactivity in kidney): 0.257 ± 0.01 %ID/g
tissue uptake at 6 h [3, 21]: 1.35 ± 0.047 %ID/g
tissue uptake at 24 h ([3]; liver, N = 3, mean ± standard error (Table 4), read-out: Radioactivity in liver): 0.142 ± 0.033 %ID/g
tissue uptake at 6 h [3, 22]: 0.816 ± 0.031 %ID/g
tissue uptake at 24 h ([3]; lung, N = 3, mean ± standard error (Table 4), read-out: Radioactivity in lung): 0.129 ± 0.013 %ID/g
tissue uptake at 6 h [3, 23]: 0.083 ± 0.009 %ID/g
tissue uptake at 24 h ([3]; muscle, N = 3, mean ± standard error (Table 4), read-out: Radioactivity in muscle): 0.025 ± 0.001 %ID/g
tissue uptake at 6 h [6, 24]: 0.239 ± 0.024 %ID/g
tissue uptake at 24 h ([6]; blood, tumor-bearing rats, N = 3, mean ± standard error (Table 4), read-out: Radioactivity in blood): 0.036 ± 0.004 %ID/g
tissue uptake at 6 h [6, 25]: 1.77 ± 0.108 %ID/g
tissue uptake at 24 h ([6]; kidney, tumor-bearing rats, N = 3, mean ± standard error (Table 4), read-out: Radioactivity in kidney): 0.235 ± 0.018 %ID/g
tissue uptake at 6 h [6, 26]: 0.892 ± 0.083 %ID/g
tissue uptake at 24 h ([6]; liver, tumor-bearing rats, N = 3, mean ± standard error (Table 4), read-out: Radioactivity in liver): 0.139 ± 0.01 %ID/g
tissue uptake at 6 h [6, 27]: 0.525 %ID/g
tissue uptake at 24 h ([6]; lung, tumor-bearing rats, N = 3, mean ± standard error (Table 4), read-out: Radioactivity in lung): 0.105 %ID/g
tissue uptake at 6 h [6, 28]: 0.05 ± 0.009 %ID/g
tissue uptake at 24 h ([6]; muscle, tumor-bearing rats, N = 3, mean ± standard error (Table 4), read-out: Radioactivity in muscle): 0.014 ± 0.001 %ID/g
tissue uptake at 6 h [6, 29]: 1.03 ± 0.158 %ID/g
tissue uptake at 24 h ([6]; walker 256 tumor, Walker 256 sarcoma implanted in thigh, N = 3, mean ± standard error (Table 4), read-out: Radioactivity in tumor): 0.463 ± 0.063 %ID/g
SMILES: C[N+](C)(C)CCOP(=O)([O-])OCCCOCCCCCCCCCCCCc1cccc([125I])c1 [ET-12IP-H, 1-[12-(m-iodophenyl)-dodecyl]-propanediol-3-phosphocholine]
tissue uptake at 24 h [2, 11]: 0.274 %ID/g
tissue uptake at 24 h [2, 12]: 0.036 %ID/g
tissue uptake at 24 h [2, 13]: 0.463 %ID/g
tissue uptake at 24 h [2, 14]: 0.235 %ID/g
tissue uptake at 24 h [2, 15]: 0.139 %ID/g
tissue uptake at 24 h [2, 16]: 0.105 %ID/g
tissue uptake at 24 h [2, 17]: 0.014 %ID/g
tissue uptake at 24 h [2, 18]: 8.45 %ID/g
